How the values were obtained:
[1] = test system: tumor; experiment: Gamma camera imaging of tumor-bearing mice; type: in vivo, athymic nude mice; details: gamma images at 5 min and 15 min
Description: FIG. 2 is a photograph showing the position of tumors in the body of athymic nude mice imaged […] after injection with gallium-67 dimercaptosuccinate.
Imaging was performed using the Elscint gamma camera with medium energy collimator, and a SIMIS-IV nuclear medicine computer for data processing.

[2] = test system: glioblastoma (GBM); experiment: Animal biodistribution in glioblastoma (GBM) tumor-bearing athymic nude mice; type: in vivo; details: 2 hr. postinjection, tail vein
Description: The six-week old athymic nude mice were obtained from the Experiment Animal Center, Tri-service General Hospital, Taipei, Taiwan. The viable cultured cells, glioblastoma (GBM), were implanted in the upper back leg by intradermal injection. The tissue biodistribution of gallium-67 dimercaptosuccinate was determined following injection (0.15 to 0.2 ml) into tail vein of ketamine anesthetized in tumor-bearing mice. The reanesthetized animals were sacrificed immediately thereafter by decapitation at given time intervals. The organs of interest were subsequently excised, blotted with tissue paper, weighed and the radioactivity was measured. The tissue distribution of gallium-67 dimercaptosuccinate and gallium-67 chloride in tumor-bearing mice are shown in FIG. 1 at 2 hr. postinjection, as much as 7.8% and 1.1% were in GBM and gallium-67 chloride respectively.

Row | Molecule | in vivo stability [1] | tissue distribution in GBM [2] [%]
1 | gallium-67 dimercaptosuccinate | stable in vivo | 7.8
2 | [Cl][Ga]([Cl])[Cl] [gallium-67 chloride, reference compound] | – | 1.1

From patent publication US5639439A, “Gallium dimercaptosuccinate as a novel tumor imaging agent” (Institute of Nuclear Energy Research, Taiwan, priority 1994, dated 1997)
